The record followed here is patent US20140227741A1, “Biological Systems for Production of Highest Quality Proteins” (Mediterranean Institute for Life Sciences, priority 2012, published 2014).

In test [1] the test system is protein carbonylation (PC) amount. Kind of test: Effect of 1 mM trolox on protein carbonylation (PC) amount. Type of test: cell-based, E. coli. The source says: (§1) The functional defects of proteins, correlating with their oxidative damage (carbonylation), can be suppressed by antioxidants in proportion to the extent of the decrease in protein carbonylation. This is illustrated by the effects of trolox (6-hydroxy-2,5,7,8-tetramethylchroman-2-carboxylic acid) on the reduction of ROS species levels and PC levels as given in Table 2.
The procedure for the quantification of protein carbonylation by ELISA method is as follows. The steps of protein extraction are as described in Example 1 (steps 1 and 2). Protein […] concentration is determined and adjusted so that the proteins are loaded into ELISA wells at 10 μg/mL. Adsorbed proteins are derivatized by using 12 μg/mL DNPH. Derivatization of adsorbed proteins is followed by detection of derivatized dinitrophenol (DNP)-carbonyl by a rabbit anti-DNP primary antibody (Sigma, D9656) and goat anti-rabbit secondary antibody conjugated to HRP (Jackson ImmunoResearch, 111-035-14). Stocks of antibodies were prepared at ˜1 ug/uL and used at 1:7000 dilutions.

In test [2] the test system is reactive oxygen species (ROS) level. The test can be described thus: Effect of 1 mM trolox on reactive oxygen species (ROS) level. The test is classed as cell-based, E. coli.
Description: as §1

Molecules are shown by their SMILES.

On to `Cc1c(C)c2c(c(C)c1O)CCC(C)(C(=O)O)O2` (stereo not drawn) [trolox, 6-hydroxy-2,5,7,8-tetramethylchroman-2-carboxylic acid], for which the PC reduction was determined as 0.26 in test [1] (strain wt), 0.25 in test [1] (strain ΔdnaK) and 0.33 in test [1] (strain Δtig). Besides, the figures for the ROS reduction in test [2] (strain wt), in test [2] (strain ΔdnaK) and in test [2] (strain Δtig) were 0.41, 0.41 and 0.45, respectively.
